Drawing on EP4778920A1, “INDAZOLONE COMPOUND, PREPARATION METHOD THEREFOR, PHARMACEUTICAL COMPOSITION, AND USE” (Shanghai Institute of Materia Medica, Chinese Academy of …, priority 2023, dated 2025), this text covers hydrolysis half-life, inhibition and IC50 for 11 compounds.

For data set [1] the following is noted: cited from earlier work.
The next data set has as its target CRBN/DDB1 (Homo sapiens, UniProt Q96SW2). Kind of data set: CRBN/DDB1 binding TR-FRET assay. Particulars: read-out: AVE_Inhibition% (1 µM). As for the experimental part:
• 1. 0.1 µL of the reference solution was added to a 384-well assay plate. The final detection concentration was 100 µM, followed by 3-fold serial dilution for 10 points. • 2. 2.5 µL of CRBN/DDB1 was added to the 384-well plate and centrifuged at 1000 rpm for 1 minute. • 3. 2.5 µL of Thalidomide-BODIPY was added to the plate, centrifuged at 1000 rpm for 1 minute, and incubated at 25 °C for 15 minutes. • 4. 5 µL of His-Tb was added to the plate, centrifuged at 1000 rpm for 1 minute, and incubated at 25 °C for 60 minutes. • 5. The TR-FRET signal was measured using a BMG plate reader with a fluorescence ratio of 520/490 nm.
Table 4. Inhibition Rate of Compounds on CRBN/DDB1 Binding

Another data set concerns MM.1S cells. Kind of data set: MM.1S cell proliferation inhibition (MTS assay). The class given is cell-based. Particulars: Homo sapiens, MM1.S, 168 h, 7 days incubation, read-out: MM1.S (IC50, Inhibitory Activity of Compounds on MM.1S Cell Proliferation). How it is done: The cell concentration was diluted according to a 7-day incubation period, and 180 µL of cell suspension was added to each well of a 96-well plate, with 20,000 cells per well. […] The test compounds were prepared from a 10 mM stock solution and serially diluted in a 5-fold gradient, and 20 µL of the diluted solution was added to each compound-treated well (final DMSO concentration also 0.2%). The cells were incubated in a 37 °C, 5% CO2 incubator for 7 days. After incubation, the reaction solution was prepared according to the MTS assay kit instructions (Promega, G5430), and 20 µL was added to each well. The plate was incubated at 37 °C with 5% CO2 for 3-4 hours. The absorbance at 490 nm was measured using a microplate reader, and the absorbance at 690 nm was used as the background value. […] The IC50 values for cell proliferation inhibition were determined using GraphPad Prism 5.0. Each experiment was repeated three times, and three parallel replicates were performed in each experiment to calculate the mean value and standard deviation.
Inhibitory Activity of Compounds on MM.1S Cell Proliferation

Another data set concerns Mino cells. Kind of data set: Mino cell proliferation inhibition (MTS assay). In kind it is cell-based. Particulars: Homo sapiens, 72 h, 3 days incubation, read-out: Mino (IC50, Inhibitory Activity of Compounds on Mino Cell Proliferation). As for the experimental part:
The cell concentration was diluted according to a 3-day incubation period, and 90 µL of cell suspension was added to each well of a 96-well plate, resulting in 8,000 cells per well. […] The test compounds were prepared from a 10 mM stock solution and serially diluted in a five-fold gradient. Similarly, 10 µL of the diluted compound solution was added to each compound-treated well (final DMSO concentration 0.2%).
The cells were incubated in a 37 °C, 5% CO2 incubator for 3 days. After incubation, the reaction solution was prepared according to the MTS assay kit instructions (Promega, G5430), and 20 µL was added to each well. The plate was further incubated at 37 °C with 5% CO2 for 3-4 hours. The absorbance at 490 nm was measured using a microplate reader, and the absorbance at 690 nm was used as the background value. The final raw data were calculated as OD490 - OD690. […] The IC50 values for cell proliferation inhibition were determined using GraphPad Prism 5.0. Each experiment was repeated three times, and three parallel replicates were performed in each experiment to calculate the mean value and standard deviation.
Table 2. Inhibitory Activity of Compounds on Mino Cell Proliferation
(In general: Tetrazolium dyes change colour on reduction, which living cells bring about.)

For the next data set, the system named is MV-4-11 cells. Put plainly: MV-4-11 cell proliferation inhibition (MTS assay). In kind it is cell-based. Particulars: Homo sapiens, MV4-11, 168 h, 7 days incubation, MTS, read-out: MV-411 (IC50, Inhibitory Activity of Compounds on MV-4-11 Cell Proliferation). How it is done: MV-4-11 cells were cultured in IMDM medium supplemented with 10% fetal bovine serum and collected. The cell concentration was diluted according to a 7-day incubation period, and 180 µL of cell suspension was added to each well of a 96-well plate, resulting in 2,000 cells per well. […] The test compounds were prepared from a 10 mM stock solution and serially diluted in a five-fold gradient, and 20 µL of the diluted compound solution was added to each compound-treated well (final DMSO concentration 0.2%). The cells were incubated in a 37 °C, 5% CO2 incubator for 7 days. After incubation, the reaction solution was prepared according to the MTS assay kit instructions (Promega, G5430), and 20 µL was added to each well. The plate was further incubated at 37 °C with 5% CO2 for 3-4 hours. The absorbance at 490 nm was measured using a microplate reader, and the absorbance at 690 nm was used as the background value. The final raw data were calculated as OD490 - OD690. […] The IC50 values for cell proliferation inhibition were determined using GraphPad Prism 5.0. Each experiment was repeated three times, and three parallel replicates were performed in each experiment to calculate the mean value and standard deviation.
Table 3. Inhibitory Activity of Compounds on MV-4-11 Cell Proliferation

Molecules are shown by their SMILES. Where two headings read alike, the source gives them in different places.

Chain of CRBN/DDB1 (Q96SW2 whole entry, species assumed): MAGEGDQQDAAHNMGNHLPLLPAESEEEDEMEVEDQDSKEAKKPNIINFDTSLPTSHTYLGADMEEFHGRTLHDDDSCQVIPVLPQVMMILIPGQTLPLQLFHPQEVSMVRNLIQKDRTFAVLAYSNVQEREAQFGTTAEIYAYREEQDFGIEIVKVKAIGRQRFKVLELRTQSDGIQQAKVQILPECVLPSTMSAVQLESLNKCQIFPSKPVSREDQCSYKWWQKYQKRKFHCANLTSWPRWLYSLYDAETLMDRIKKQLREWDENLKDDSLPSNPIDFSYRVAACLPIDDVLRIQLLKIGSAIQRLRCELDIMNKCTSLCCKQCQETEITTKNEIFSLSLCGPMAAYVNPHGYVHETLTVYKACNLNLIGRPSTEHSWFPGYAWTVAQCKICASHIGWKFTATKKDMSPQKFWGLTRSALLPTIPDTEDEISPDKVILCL
Chain of CRBN/DDB1 (Q16531 whole entry partner, species assumed): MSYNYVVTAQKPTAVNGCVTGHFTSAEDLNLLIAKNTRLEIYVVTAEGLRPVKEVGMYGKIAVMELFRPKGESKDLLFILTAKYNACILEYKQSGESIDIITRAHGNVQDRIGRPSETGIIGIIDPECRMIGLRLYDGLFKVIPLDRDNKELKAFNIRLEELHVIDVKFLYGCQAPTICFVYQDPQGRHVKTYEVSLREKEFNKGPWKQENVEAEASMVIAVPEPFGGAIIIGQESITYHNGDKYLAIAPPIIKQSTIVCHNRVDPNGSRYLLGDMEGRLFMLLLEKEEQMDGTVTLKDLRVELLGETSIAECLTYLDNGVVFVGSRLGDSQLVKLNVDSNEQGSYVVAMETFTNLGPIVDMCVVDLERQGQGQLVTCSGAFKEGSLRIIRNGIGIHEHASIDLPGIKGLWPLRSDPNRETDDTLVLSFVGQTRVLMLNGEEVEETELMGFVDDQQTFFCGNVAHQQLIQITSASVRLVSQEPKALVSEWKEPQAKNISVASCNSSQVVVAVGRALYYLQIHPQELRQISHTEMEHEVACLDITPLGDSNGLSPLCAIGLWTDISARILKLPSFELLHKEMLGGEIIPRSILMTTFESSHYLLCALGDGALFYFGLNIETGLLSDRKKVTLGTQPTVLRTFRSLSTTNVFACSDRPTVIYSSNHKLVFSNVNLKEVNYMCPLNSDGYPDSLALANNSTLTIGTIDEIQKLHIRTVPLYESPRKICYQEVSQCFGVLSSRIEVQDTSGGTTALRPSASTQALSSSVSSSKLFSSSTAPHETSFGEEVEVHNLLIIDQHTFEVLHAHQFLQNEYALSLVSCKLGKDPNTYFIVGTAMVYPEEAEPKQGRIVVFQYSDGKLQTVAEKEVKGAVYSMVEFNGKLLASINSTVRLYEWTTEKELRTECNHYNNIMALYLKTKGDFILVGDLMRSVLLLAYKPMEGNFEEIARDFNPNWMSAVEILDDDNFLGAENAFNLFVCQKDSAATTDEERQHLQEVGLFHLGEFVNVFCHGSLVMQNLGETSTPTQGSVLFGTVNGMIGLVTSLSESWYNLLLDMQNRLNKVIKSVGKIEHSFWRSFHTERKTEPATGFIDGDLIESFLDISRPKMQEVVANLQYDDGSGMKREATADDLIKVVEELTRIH

Consider `O=C1CCC(N2C(=O)c3ccccc3C2=O)C(=O)N1` (stereo not shown) [thalidomide], for which the hydrolysis half-life entry in data set [1] (pH 7) was “about 11 hours”; in data set [1] (pH 7.4) it was ~5 h; in data set [1] (pH 8), ~1.25 h.

`O=C1CCC(n2[nH]c3c(OCc4ccc(CN5CCN(c6ccc(F)cc6)CC5)cc4)cc(F)cc3c2=O)C(=O)N1` (stereo not shown) [Compound D19, 3-(5-Fluoro-7-((4-((4-(4-fluorophenyl)piperazin-1-yl)methyl)benzyl)oxy)-3-oxo-1,3-dihydro-2H-indazol-2-yl)piperidine-2,6-dione]: the inhibition at 1 µM on CRBN/DDB1 was > 90%. The IC50 in the data set with MM.1S cells, in the data set with Mino cells and with MV-4-11 cells was < 200 nM throughout.

For `O=C1CCC(n2[nH]c3cc(C(=O)NCc4ccccc4)ccc3c2=O)C(=O)N1` (stereo not shown) [Compound D46, N-Benzyl-2-(2,6-dioxopiperidin-3-yl)-3-oxo-2,3-dihydro-1H-indazol-6-carboxamide], on CRBN/DDB1, the inhibition at 1 µM was < 50%. In addition, the IC50 was > 10000 nM in the data set with MM.1S cells, > 10000 nM in the data set with Mino cells and > 20000 nM with MV-4-11 cells.

For `O=C1CCC(n2[nH]c3c(OCc4ccc(CN5CCN(c6cccc(Cl)c6)CC5)cc4)cccc3c2=O)C(=O)N1` (stereo not shown) [Compound D8, 3-(7-((4-((4-(3-chlorophenyl)piperazin-1-yl)methyl)benzyl)oxy)-3-oxo-1,3-dihydro-2H-indazol-2-yl)piperidine-2,6-dione], on CRBN/DDB1, the inhibition at 1 µM is > 90%. Also, the IC50 with MM.1S cells, in the data set with Mino cells and in the data set with MV-4-11 cells was < 200 nM throughout.

Take `O=C1CC[C@H](n2[nH]c3cc(CNC(=O)C(F)(F)c4ccc(Cl)cc4)ccc3c2=O)C(=O)N1` [Compound D44, (S)-2-(4-chlorophenyl)-N-((2-(2,6-dioxopiperidin-3-yl)-3-oxo-2,3-dihydro-1H-indazol-6-yl)methyl)-2,2-difluoroacetamide]: the inhibition at 1 µM at CRBN/DDB1 was < 50%. For the same compound, the IC50 was > 10000 nM in the data set with MM.1S cells, > 10000 nM in the data set on Mino cells and 1000 to 20000 nM in the data set with MV-4-11 cells.

Take `O=C1CCC(n2[nH]c3c(OCc4ccc(CN5CCN(c6ccc(F)cc6)CC5)cc4)cccc3c2=O)C(=O)N1` (stereo not shown) [Compound D10, 3-(7-((4-((4-(4-fluorophenyl)piperazin-1-yl)methyl)benzyl)oxy)-3-oxo-1,3-dihydro-2H-indazol-2-yl)piperidine-2,6-dione]: the inhibition at 1 µM at CRBN/DDB1 is > 90%. Further, the IC50 in the data set on MM.1S cells, with Mino cells and in the data set on MV-4-11 cells was < 200 nM throughout.

Regarding `CC(C)(C)NC(=O)c1ccc2c(=O)n(C3CCC(=O)NC3=O)[nH]c2c1` (stereo not shown) [Compound D40, N-(tert-butyl)-2-(2,6-dioxopiperidin-3-yl)-3-oxo-2,3-dihydro-1H-indazole-6-carboxamide], the inhibition at 1 µM at CRBN/DDB1 was < 50%. Also, the IC50 with MM.1S cells is > 10000 nM; in the data set with Mino cells it was > 10000 nM; with MV-4-11 cells it was > 20000 nM.

For `O=C1CCC(n2[nH]c3c(OCc4ccc(CN5CCN(c6ccc(F)cc6F)CC5)cc4)cc(F)cc3c2=O)C(=O)N1` (stereo not shown) [Compound D15, 3-(7-((4-((4-(2,4-difluorophenyl)piperazin-1-yl)methyl)benzyl)oxy)-5-fluoro-3-oxo-1,3-dihydro-2H-indazol-2-yl)piperidine-2,6-dione], the inhibition at 1 µM at CRBN/DDB1 is 50 to 90%. For the same compound, the IC50 in the data set with MM.1S cells, in the data set with Mino cells and in the data set on MV-4-11 cells was < 200 nM in each case.

With `N#Cc1ccc(N2CCN(Cc3ccc(COc4cccc5c(=O)n([C@H]6CCC(=O)NC6=O)[nH]c45)cc3)CC2)c(F)c1` [Compound D2, (S)-4-(4-(4-(((2-(2,6-dioxopiperidin-3-yl)-3-oxo-2,3-dihydro-1H-indazol-7-yl)oxy)methyl)benzyl)piperazin-1-yl)-3-fluorobenzonitrile], the inhibition at 1 µM at CRBN/DDB1 is > 90%. Also, the IC50 in the data set on MM.1S cells, with Mino cells and in the data set with MV-4-11 cells was < 200 nM throughout.

`N#Cc1ccc(N2CCN(Cc3ccc(COc4cc(F)cc5c(=O)n(C6CCC(=O)NC6=O)[nH]c45)cc3)CC2)c(F)c1` (stereo not shown) [Compound D14, 4-(4-(4-(((2-(2,6-dioxopiperidin-3-yl)-5-fluoro-3-oxo-2,3-dihydro-1H-indazol-7-yl)oxy)methyl)benzyl)piperazin-1-yl)-3-fluorobenzonitrile]: the inhibition at 1 µM on CRBN/DDB1 was > 90%. In addition, the IC50 with MM.1S cells, with Mino cells and in the data set with MV-4-11 cells was < 200 nM in each case.

Turning to `CCn1c2c(OCc3ccc(CN4CCN(c5ccc(C#N)cc5F)CC4)cc3)cccc2c(=O)n1C1CCC(=O)NC1=O` (stereo not shown) [Compound D25], the inhibition at 1 µM at CRBN/DDB1 is < 50%. Also, the IC50 is 1000 to 10000 nM with MM.1S cells, > 10000 nM in the data set on Mino cells and 1000 to 20000 nM in the data set on MV-4-11 cells.
